Test results: patent publication US9376425B2, “Heterocyclic compounds as MDM2 inhibitors for the treatment of cancer” (AMGEN INC., priority 2011, dated 2016)

Target: T1, human MDM2 (GST-hMDM2 1-188), interaction with biotinylated-p53 (1-83) (Homo sapiens, UniProt Q00987)
T1 construct: Amino acid residues 1-188 of human MDM2 were expressed; made in house; host or cells: Escherichia coli
Experiment: improved HTRF assay (HTRF2 assay), inhibition of HDM2-p53 interaction
Format: binding
Settings: 0.2 nM GST-hMDM2, 0.5 nM biotinylated-p53, 100 mM KF
Description: Residues 1-83 of human p53 were expressed as an amino-terminal AviTag™-TrxA-6xHis fusion protein (biotinylated p53) in E. coli. Each protein was purified from cell paste by affinity chromatography.
Specifically, 10 uL of GST-hMDM2 was incubated with 10 ul of diluted compound (various concentrations, serially diluted) in 10% DMSO for 20 minutes at room temperature. 20 uL of biotinylated-p53 was added to the GST-hMDM2+ compound mixture, and then incubated at room temperature for 60 min. 10 uL of detection buffer consisting of SA-XLent, anti-GST cryptate antibody and KF was added to GST-hMDM2, biotinylated-p53 and compound reaction and left at room temperature to reach equilibrium for >4 hrs. The final concentration of DMSO in the reaction was 2%. Time-resolved fluorescence readings were measured on a microplate multilabel reader. Percentage of inhibition was calculated relative to nutlin-3.

T1 sequence (Q00987 1-188): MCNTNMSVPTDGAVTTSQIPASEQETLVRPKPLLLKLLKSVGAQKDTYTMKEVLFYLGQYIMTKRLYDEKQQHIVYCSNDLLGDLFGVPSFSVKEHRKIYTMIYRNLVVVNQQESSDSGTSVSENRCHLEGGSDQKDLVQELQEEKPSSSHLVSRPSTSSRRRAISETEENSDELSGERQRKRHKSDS

| SMILES | IC50 |
| --- | --- |
| CC[C@@H](CS(=O)(=O)C(C)(C)C)N1C(=O)[C@@H](CC(=O)O)O[C@H](c2cccc(Cl)c2)[C@H]1c1ccc(Cl)c(F)c1 (single isomer, unassigned) [Example 182, 2-((2R,5R,6R)-4-((S)-1-(tert-butylsulfonyl)butan-2-yl)-5-(4-chloro-3-fluorophenyl)-6-(3-chlorophenyl)-3-oxomorpholin-2-yl)acetic acid or 2-((2S,5R,6R)-4-((S)-1-(tert-butylsulfonyl)butan-2-yl)-5-(4-chloro-3-fluorophenyl)-6-(3-chlorophenyl)-3-oxomorpholin-2-yl)acetic acid] | 4 nM |
| CC(C)[C@@H](CS(=O)(=O)C(C)(C)C)N1C(=O)[C@@H](CC(=O)O)O[C@H](c2cccc(Cl)c2)[C@H]1c1ccc(Cl)c(F)c1 (single isomer, unassigned) [Example 312] | 279 nM |
| C[C@@H](CS(=O)(=O)C(C)(C)C)N1C(=O)[C@@H](CC(=O)O)O[C@H](c2cc(F)cc(Cl)c2)[C@H]1c1ccc(Cl)c(F)c1 (single isomer, unassigned) [Example 423, 2-((2R,5R,6R)-4-((S)-1-(tert-Butylsulfonyl)propan-2-yl)-5-(4-chloro-3-fluorophenyl)-6-(3-chloro-5-fluorophenyl)-3-oxomorpholin-2-yl)acetic acid or 2-((2S,5R,6R)-4-((S)-1-(tert-butylsulfonyl)propan-2-yl)-5-(4-chloro-3-fluorophenyl)-6-(3-chloro-5-fluorophenyl)-3-oxomorpholin-2-yl)acetic acid] | 1 nM |
| CC[C@@H](CS(=O)(=O)C(C)C)N1C(=O)[C@@H](CC(=O)O)O[C@H](c2cc(Cl)cc(Cl)c2)[C@H]1c1ccc(Cl)cc1 (single isomer, unassigned) [Example 146, 2-((2R,5R,6R)-5-(4-chlorophenyl)-6-(3,5-dichlorophenyl)-4-((S)-1-(isopropylsulfonyl)butan-2-yl)-3-oxomorpholin-2-yl)acetic acid or 2-((2S,5R,6R)-5-(4-chlorophenyl)-6-(3,5-dichlorophenyl)-4-((S)-1-(isopropylsulfonyl)butan-2-yl)-3-oxomorpholin-2-yl)acetic acid] | 15 nM |
| CC[C@@H](CN(c1ccccc1F)S(=O)(=O)C1CC1)N1C(=O)[C@@H]([C@@H](C)C(=O)O)O[C@H](c2cccc(Cl)c2)[C@H]1c1ccc(Cl)cc1 (single isomer, unassigned) [Example 255] | 4 nM |
| C[C@@H](CS(=O)(=O)C(C)(C)C)N1C(=O)[C@H](CC(=O)NS(C)(=O)=O)O[C@H](c2cccc(Cl)c2)[C@H]1c1ccc(Cl)cc1 (single isomer, unassigned) [Example 237] | 3 nM |
| NC(=O)C[C@H]1O[C@H](c2cccc(Cl)c2)[C@@H](c2ccc(Cl)cc2)N([C@H](CN(c2c(F)cccc2F)S(=O)(=O)C2CC2)C2CC2)C1=O (single isomer, unassigned) [Example 358, 2-((2R,5R,6R)-6-(3-Chlorophenyl)-5-(4-chlorophenyl)-4-((S)-1-cyclopropyl-2-(N-(2,6-difluorophenyl)cyclopropanesulfonamido)ethyl)-3-oxomorpholin-2-yl)acetamide or 2-((2S,5R,6R)-6-(3-chlorophenyl)-5-(4-chlorophenyl)-4-((S)-1-cyclopropyl-2-(N-(2,6-difluorophenyl)cyclopropanesulfonamido)ethyl)-3-oxomorpholin-2-yl)acetamide] | < 1 nM |
| CC[C@@H](CS(=O)(=O)CCN(C)C)N1C(=O)[C@@H](CC(=O)O)O[C@H](c2cccc(Cl)c2)[C@H]1c1ccc(Cl)cc1 (single isomer, unassigned) [Example 247, 2-((2R,5R,6R)-6-(3-chlorophenyl)-5-(4-chlorophenyl)-4-((S)-1-((2-(dimethylamino)ethyl)sulfonyl)butan-2-yl)-3-oxomorpholin-2-yl)acetic acid or 2-((2S,5R,6R)-6-(3-chlorophenyl)-5-(4-chlorophenyl)-4-((S)-1-((2-(dimethylamino)ethyl)sulfonyl)butan-2-yl)-3-oxomorpholin-2-yl)acetic acid] | 3 nM |
| CC(C)(C)S(=O)(=O)C[C@H](C1CC1)N1C(=O)[C@@H](CCO)O[C@H](c2cccc(Cl)c2)[C@H]1c1ccc(Cl)cc1 (single isomer, unassigned) [Example 370, (2R,5R,6R)-4-((S)-2-(tert-Butylsulfonyl)-1-cyclopropylethyl)-6-(3-chlorophenyl)-5-(4-chlorophenyl)-2-(2-hydroxyethyl)morpholin-3-one or (2S,5R,6R)-4-((S)-2-(tert-butylsulfonyl)-1-cyclopropylethyl)-6-(3-chlorophenyl)-5-(4-chlorophenyl)-2-(2-hydroxyethyl)morpholin-3-one] | 28 nM |
| O=C(O)C[C@H]1O[C@H](c2cccc(Cl)c2)[C@@H](c2ccc(Cl)cc2)N([C@H](CS(=O)(=O)N2CCc3cc(F)ccc32)C2CC2)C1=O (single isomer, unassigned) [Example 298, 2-((2R,5R,6R)-6-(3-Chlorophenyl)-5-(4-chlorophenyl)-4-((S)-1-cyclopropyl-2-((5-fluoroindolin-1-yl)sulfonyl)ethyl)-3-oxomorpholin-2-yl)acetic acid or 2-((2S,5R,6R)-6-(3-chlorophenyl)-5-(4-chlorophenyl)-4-((S)-1-cyclopropyl-2-((5-fluoroindolin-1-yl)sulfonyl)ethyl)-3-oxomorpholin-2-yl)acetic acid] | 26 nM |
| CC[C@@H](CCS(=O)(=O)C(C)(C)C)N1C(=O)[C@@H](CC(=O)O)O[C@H](c2cccc(Cl)c2)[C@H]1c1ccc(Cl)cc1 (single isomer, unassigned) [Example 220, 2-((2R,5R,6R)-4-((S)-1-(tert-butylsulfonyl)pentan-3-yl)-6-(3-chlorophenyl)-5-(4-chlorophenyl)-3-oxomorpholin-2-yl)acetic acid or 2-((2S,5R,6R)-4-((S)-1-(tert-butylsulfonyl)pentan-3-yl)-6-(3-chlorophenyl)-5-(4-chlorophenyl)-3-oxomorpholin-2-yl)acetic acid] | 9 nM |
| CC[C@@H](CS(=O)(=O)C(C)(C)C)N1C(=O)[C@H](CC(N)=O)O[C@H](c2cccc(Cl)c2)[C@H]1c1ccc(Cl)cc1 (single isomer, unassigned) [Example 260, 2-((2S,5R,6R)-4-((S)-1-(tert-butylsulfonyl)butan-2-yl)-6-(3-chlorophenyl)-5-(4-chlorophenyl)-3-oxomorpholin-2-yl)acetamide or 2-((2R,5R,6R)-4-((S)-1-(tert-butylsulfonyl)butan-2-yl)-6-(3-chlorophenyl)-5-(4-chlorophenyl)-3-oxomorpholin-2-yl)] | 8 nM |
| CC[C@@H](CN(c1ccccc1F)S(=O)(=O)C1CC1)N1C(=O)[C@@](C)(CC(=O)O)O[C@H](c2cccc(Cl)c2)[C@H]1c1ccc(Cl)cc1 (single isomer, unassigned) [Example 330, 2-((2R,5R,6R)-6-(3-Chlorophenyl)-5-(4-chlorophenyl)-4-((S)-1-(N-(2-fluorophenyl)cyclopropanesulfonamido)butan-2-yl)-2-methyl-3-oxomorpholin-2-yl)acetic acid or 2-((2S,5R,6R)-6-(3-chlorophenyl)-5-(4-chlorophenyl)-4-((S)-1-(N-(2-fluorophenyl)cyclopropanesulfonamido)butan-2-yl)-2-methyl-3-oxomorpholin-2-yl)acetic acid] | 1 nM |
| C[C@@H]1CCCN1S(=O)(=O)C[C@H](C1CC1)N1C(=O)[C@@H](CC(=O)O)O[C@H](c2cccc(Cl)c2)[C@H]1c1ccc(Cl)cc1 (single isomer, unassigned) [Example 305, 2-((2R,5R,6R)-6-(3-Chlorophenyl)-5-(4-chlorophenyl)-4-((S)-1-cyclopropyl-2-(((R)-2-methylpyrrolidin-1-yl)sulfonyl)ethyl)-3-oxomorpholin-2-yl)acetic acid or 2-((2S,5R,6R)-6-(3-chlorophenyl)-5-(4-chlorophenyl)-4-((S)-1-cyclopropyl-2-(((R)-2-methylpyrrolidin-1-yl)sulfonyl)ethyl)-3-oxomorpholin-2-yl)acetic acid] | < 1 nM |
| CC[C@@H](CN(c1ccccn1)S(=O)(=O)C1CC1)N1C(=O)[C@H](CC(=O)O)O[C@H](c2cccc(Cl)c2)[C@H]1c1ccc(Cl)cc1 (single isomer, unassigned) [Example 181, 2-((2S,5R,6R)-6-(3-chlorophenyl)-5-(4-chlorophenyl)-3-oxo-4-((S)-1-(N-(pyridin-2-yl)cyclopropanesulfonamido)butan-2-yl)morpholin-2-yl)acetic acid or 2-((2R,5R,6R)-6-(3-chlorophenyl)-5-(4-chlorophenyl)-3-oxo-4-((S)-1-(N-(pyridin-2-yl)cyclopropanesulfonamido)butan-2-yl)morpholin-2-yl)acetic acid] | 1 nM |
| CC[C@@H](CS(=O)(=O)N1CCC[C@H]1C)N1C(=O)[C@@H](CC(=O)O)O[C@H](c2cccc(Cl)c2)[C@H]1c1ccc(Cl)cc1 (single isomer, unassigned) [Example 211, 2-((2R,5R,6R)-6-(3-chlorophenyl)-5-(4-chlorophenyl)-4-((S)-1-(((R)-2-methylpyrrolidin-1-yl)sulfonyl)butan-2-yl)-3-oxomorpholin-2-yl)acetic acid or 2-((2S,5R,6R)-6-(3-chlorophenyl)-5-(4-chlorophenyl)-4-((S)-1-(((R)-2-methylpyrrolidin-1-yl)sulfonyl)butan-2-yl)-3-oxomorpholin-2-yl)acetic acid] | 4 nM |
